Measurements from patent US8247211B2, “Glycopeptide antibiotics” (American Cyanamid Company, priority 2001, dated 2012).
≈ marks a conversion by molar mass, not a printed value.

Key:
Experiment in all cases: In vitro antibacterial evaluation: minimum inhibitory concentration (MIC), broth dilution method
Format in all cases: cell-based
Enterococcus sp. = tested on: Enterococcus sp.
Method in brief: (§1)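 Inoculum: 5×10^5 CFU/mL. Range: 64-0.06 μg/mL. Medium: Muller-Hinton II […]; NCCLS M7-A2 broth dilution. Endpoint: lowest concentration inhibiting growth. Strains include methicillin-, penicillin- and/or vancomycin-resistant clinical isolates.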

Escherichia coli = tested on: Escherichia coli
Method in brief: as §1

Staphylococcus sp. = details: broth dilution, 18 hours at 35° C.
Method in brief: as §1

Streptococcus sp. = tested on: Streptococcus sp.
Method in brief: as §1

[1] = broth dilution, inoculum 5×10^5 CFU/mL, 18 hours at 35° C.

CC(c1ccccc1)C1NC(=O)CNC(=O)C(CO)NC(=O)C(C(O)C2CNC(=N)N2C2OC(CO)C(O)C(O)C2O)NC(=O)C(C(O)C2CNC(=N)N2)NC(=O)C(Cc2ccc(OC3OC(CO)C(OC4OC5COC(c6ccc(-c7ccc(Cl)cc7)cc6)OC5C(O)C4O)C(O)C3O)cc2)NC1=O (stereo not drawn) [Example 178]
MIC Enterococcus avium (GC 4558) (Enterococcus sp.; [1]): 4 µg/mL (≈ 2.68 µM)
MIC Enterococcus faecalis (ATCC 29212) (Enterococcus sp.; [1]): 4 µg/mL (≈ 2.68 µM)
MIC Enterococcus faecalis (GC 2242) (Enterococcus sp.; [1]): 2 µg/mL (≈ 1.34 µM)
MIC Enterococcus faecalis (GC 2691) (Enterococcus sp.; [1]): 1 µg/mL (≈ 0.669 µM)
MIC Enterococcus faecalis (GC 3059) (Enterococcus sp.; [1]): 16 µg/mL (≈ 10.7 µM)
MIC Enterococcus faecalis (GC 4552) (Enterococcus sp.; [1]): 4 µg/mL (≈ 2.68 µM)
MIC Enterococcus faecalis (GC 4553) (Enterococcus sp.; [1]): 2 µg/mL (≈ 1.34 µM)
MIC Enterococcus faecalis (GC 4554) (Enterococcus sp.; [1]): 2 µg/mL (≈ 1.34 µM)
MIC Enterococcus faecalis (GC 6189) (Enterococcus sp.; [1]): 0.5 µg/mL (≈ 0.335 µM)
MIC Enterococcus faecium (GC 2243) (Enterococcus sp.; [1]): 4 µg/mL (≈ 2.68 µM)
MIC Enterococcus faecium (GC 4556) (Enterococcus sp.; [1]): 4 µg/mL (≈ 2.68 µM)
MIC Enterococcus faecium (GC 4557) (Enterococcus sp.; [1]): 8 µg/mL (≈ 5.36 µM)
MIC Enterococcus faecalis (ATCC 29212) (Enterococcus sp.; strain ATCC 29212): 4 µg/mL (≈ 2.68 µM)
MIC Enterococcus faecalis (GC 2242) (Enterococcus sp.; strain GC 2242): 2 µg/mL (≈ 1.34 µM)
MIC Enterococcus faecium (GC 2243) (Enterococcus sp.; strain GC 2243): 4 µg/mL (≈ 2.68 µM)
MIC Enterococcus faecalis (GC 2691) (Enterococcus sp.; strain GC 2691): 1 µg/mL (≈ 0.669 µM)
MIC Enterococcus faecalis (GC 3059) (Enterococcus sp.; strain GC 3059): 16 µg/mL (≈ 10.7 µM)
MIC Enterococcus faecalis (GC 4552) (Enterococcus sp.; strain GC 4552): 4 µg/mL (≈ 2.68 µM)
MIC Enterococcus faecalis (GC 4553) (Enterococcus sp.; strain GC 4553): 2 µg/mL (≈ 1.34 µM)
MIC Enterococcus faecalis (GC 4554) (Enterococcus sp.; strain GC 4554): 2 µg/mL (≈ 1.34 µM)
MIC Enterococcus faecium (GC 4556) (Enterococcus sp.; strain GC 4556): 4 µg/mL (≈ 2.68 µM)
MIC Enterococcus faecium (GC 4557) (Enterococcus sp.; strain GC 4557): 8 µg/mL (≈ 5.36 µM)
MIC Enterococcus avium (GC 4558) (Enterococcus sp.; strain GC 4558): 4 µg/mL (≈ 2.68 µM)
MIC Enterococcus faecalis (GC 6189) (Enterococcus sp.; strain GC 6189): 0.5 µg/mL (≈ 0.335 µM)
MIC Escherichia coli (ATCC 25922) (Escherichia coli; strain ATCC 25922): >64 µg/mL
MIC Escherichia coli (GC 4559) (Escherichia coli; strain GC 4559): >64 µg/mL
MIC Escherichi coli (GC 4560) (Escherichia coli; strain GC 4560): 16 µg/mL (≈ 10.7 µM)
MIC Coagulase Negative Staphylococcus (GC 4547) (Staphylococcus sp.; 5×10^5 CFU/mL): 32 µg/mL (≈ 21.4 µM)
MIC Coagulase Negative Staphylococcus (GC 4548) (Staphylococcus sp.; 5×10^5 CFU/mL): 0.5 µg/mL (≈ 0.335 µM)
MIC Coagulase Negative Staphylococcus (GC 4549) (Staphylococcus sp.; 5×10^5 CFU/mL): 2 µg/mL (≈ 1.34 µM)
MIC Coagulase Negative Staphylococcus (GC 4551) (Staphylococcus sp.; 5×10^5 CFU/mL): 4 µg/mL (≈ 2.68 µM)
MIC Coagulase Negative Staphylococcus (GC 6257) (Staphylococcus sp.; 5×10^5 CFU/mL): 2 µg/mL (≈ 1.34 µM)
MIC Staphylococcus aureus (ATCC 29213) (Staphylococcus sp.; 5×10^5 CFU/mL): 16 µg/mL (≈ 10.7 µM)
MIC Staphylococcus aureus (GC 1131) (Staphylococcus sp.; 5×10^5 CFU/mL): 4 µg/mL (≈ 2.68 µM)
MIC Staphylococcus aureus (GC 3051) (Staphylococcus sp.; 5×10^5 CFU/mL): 8 µg/mL (≈ 5.36 µM)
MIC Staphylococcus aureus (GC 3053) (Staphylococcus sp.; 5×10^5 CFU/mL): 4 µg/mL (≈ 2.68 µM)
MIC Staphylococcus aureus (GC 4541) (Staphylococcus sp.; 5×10^5 CFU/mL): 8 µg/mL (≈ 5.36 µM)
MIC Staphylococcus aureus (GC 4542) (Staphylococcus sp.; 5×10^5 CFU/mL): 8 µg/mL (≈ 5.36 µM)
MIC Staphylococcus aureus (GC 4544) (Staphylococcus sp.; 5×10^5 CFU/mL): 8 µg/mL (≈ 5.36 µM)
MIC Staphylococcus aureus (GC 4545) (Staphylococcus sp.; 5×10^5 CFU/mL): 4 µg/mL (≈ 2.68 µM)
MIC Staphylococcus aureus-SMITH (GC 4543) (Staphylococcus sp.; 5×10^5 CFU/mL): 4 µg/mL (≈ 2.68 µM)
MIC Staphylococcus haemolyticus (GC 4546) (Staphylococcus sp.; 5×10^5 CFU/mL): 8 µg/mL (≈ 5.36 µM)
MIC Staphylococcus aureus (ATCC 29213) (Staphylococcus sp.; strain ATCC 29213): 16 µg/mL (≈ 10.7 µM)
MIC Staphylococcus aureus (GC 1131) (Staphylococcus sp.; strain GC 1131): 4 µg/mL (≈ 2.68 µM)
MIC Staphylococcus aureus (GC 3051) (Staphylococcus sp.; strain GC 3051): 8 µg/mL (≈ 5.36 µM)
MIC Staphylococcus aureus (GC 3053) (Staphylococcus sp.; strain GC 3053): 4 µg/mL (≈ 2.68 µM)
MIC Staphylococcus aureus (GC 4541) (Staphylococcus sp.; strain GC 4541): 8 µg/mL (≈ 5.36 µM)
MIC Staphylococcus aureus (GC 4542) (Staphylococcus sp.; strain GC 4542): 8 µg/mL (≈ 5.36 µM)
MIC Staphylococcus aureus (GC 4544) (Staphylococcus sp.; strain GC 4544): 8 µg/mL (≈ 5.36 µM)
MIC Staphylococcus aureus (GC 4545) (Staphylococcus sp.; strain GC 4545): 4 µg/mL (≈ 2.68 µM)
MIC Streptococcus agalactiae (GC 4564) (Streptococcus sp.; [1]): <0.06 µg/mL
MIC Streptococcus pneumoniae (ATCC 6301) (Streptococcus sp.; [1]): <0.06 µg/mL
MIC Streptococcus pneumoniae (GC 1894) (Streptococcus sp.; [1]): <0.06 µg/mL
MIC Streptococcus pneumoniae (GC 4565) (Streptococcus sp.; [1]): <0.06 µg/mL
MIC Streptococcus pyogenes (GC 4563) (Streptococcus sp.; [1]): 0.12 µg/mL (≈ 0.0803 µM)
MIC Streptococcus pneumoniae (ATCC 6301) (Streptococcus sp.; strain ATCC 6301): <0.06 µg/mL
MIC Streptococcus pneumoniae (GC 1894) (Streptococcus sp.; strain GC 1894): <0.06 µg/mL
MIC Streptococcus pyogenes (GC 4563) (Streptococcus sp.; strain GC 4563): 0.12 µg/mL (≈ 0.0803 µM)
MIC Streptococcus agalactiae (GC 4564) (Streptococcus sp.; strain GC 4564): <0.06 µg/mL
MIC Streptococcus pneumoniae (GC 4565) (Streptococcus sp.; strain GC 4565): <0.06 µg/mL
